Source: patent EP4640678A1, “NOVEL OXO-PYRIDINE COMPOUND, PREPARATION METHOD THEREFOR, AND USE THEREOF” (Chengdu Shibeikang Biomedical Technology Co., Ltd., priority 2022, dated 2024)

Key:
[1] = Study of pharmacokinetics in rats; assay type: in vivo; settings: rat, po; male SD rats, intragastrical gavage, 30 mg/kg, plasma
Description: Each group was administered via intragastrical gavage at a dose of 30 mg/kg.
About 0.5 mL of blood was collected, placed in an EDTA-K2 tube, centrifuged to separate plasma, and stored at -80°C. The drug plasma concentration was measured using a liquid chromatography-tandem mass spectrometry analysis system (LC-MS/MS), and pharmacokinetic parameters, such as AUC0-t, Cmax, Tmax and t1/2, were calculated based on the drug plasma concentration data using DAS 2.0 software.

human FXla = human FXla (Homo sapiens, UniProt P03951); test: Activity assay of coagulation factor FXla inhibitor (S-2366 substrate, OD405nm); assay type: biochemical; settings: 5 concentrations 200 nM to 0.32 nM, 0.8 nM (2X) human FXla working solution
Excerpt: X: log value of compound concentration; Y: inhibition rate (%).

human plasma = test: determination of in-vitro anticoagulant effect in human plasma (APTT); assay type: biochemical; settings: for APTT prolongation rate (%): healthy human plasma, 37°C for 3 min; for EC150: estimated from the APTT test results in human plasma
Description: After centrifugation, the plasma sample was pipetted and frozen (-80°C) for later use.
A proper amount of a compound was weighed and prepared into a 10-100 mM stock solution using 100% of DMSO (the specific concentration of the stock solution was determined based on the properties of the compound); and then working solutions with various concentrations (specifically: 1 µM, 3 µM and 10 µM, respectively) were prepared from the stock solution using the healthy human plasma as a solution and thoroughly mixed. After incubation at 37°C for 3 min, the sample was placed on an instrument (model: CS-2000I) to determine APTT.
GraphPad Prism software was used for analysis to calculate the APTT prolongation rate at each concentration.

[2] = Effect of continuous in-vivo administration on general condition and food intake of rats; settings: 500 mg/kg PO once a day for 14 days, within 24 hours after the last administration; for food intake compared with the blank group: SD rats
Excerpt: Each group had 10 rats, equally distributed by gender. The rats received drug administrations via oral gavage once a day for 14 consecutive days, following the administration regimen outlined in the table below. The blank group was given an equal volume of a vehicle. […] Table 4 Continuous administration regimen

human FXla, sequence (P03951 388-625 limits assumed): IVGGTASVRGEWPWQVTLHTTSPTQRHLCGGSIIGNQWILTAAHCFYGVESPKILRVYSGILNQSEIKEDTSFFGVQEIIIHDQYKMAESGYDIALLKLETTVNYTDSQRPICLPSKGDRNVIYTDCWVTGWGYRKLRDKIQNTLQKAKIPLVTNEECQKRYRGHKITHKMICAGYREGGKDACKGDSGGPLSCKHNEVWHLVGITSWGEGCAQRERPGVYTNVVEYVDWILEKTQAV
human FXla, sequence (P03951 19-387 partner limits assumed): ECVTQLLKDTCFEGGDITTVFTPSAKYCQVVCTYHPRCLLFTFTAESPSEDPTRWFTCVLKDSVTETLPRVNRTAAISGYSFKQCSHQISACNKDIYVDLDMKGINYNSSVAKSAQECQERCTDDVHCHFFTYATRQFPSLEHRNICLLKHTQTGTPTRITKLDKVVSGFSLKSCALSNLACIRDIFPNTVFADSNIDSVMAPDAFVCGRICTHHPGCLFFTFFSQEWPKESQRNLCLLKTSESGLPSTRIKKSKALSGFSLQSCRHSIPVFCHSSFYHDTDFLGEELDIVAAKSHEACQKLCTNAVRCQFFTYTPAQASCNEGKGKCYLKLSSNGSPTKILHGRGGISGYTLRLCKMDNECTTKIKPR

Row | SMILES | AUC(0-t) [1] | Cmax [1] | Tmax [1] | half-life [1] | IC50 (human FXla) | Food intake (g, mean±SD) [2] | APTT prolongation rate (%) (human plasma; 3 µM) | APTT prolongation rate (%) (human plasma; 10 µM) | EC150 (human plasma) | food intake compared with the blank group [2] | APTT prolongation rate (%) (human plasma; 1 µM)
1 | CC[C@@H](C(=O)Nc1ccc(C(=O)O)c(Cl)c1)n1cc(OC)c(-c2cc(Cl)ccc2-n2cc(C(F)(F)F)nn2)cc1=O [Compound 2, (S)-2-chloro-4-(2-(4-(5-chloro-2-(4-(trifluoromethyl)-1H-1,2,3-triazol-1-yl)phenyl)-5-methoxy-2-oxopyridin-1(2H)-yl)butanamido)benzoic acid] | 85.9 µg·h/mL | 6740 ng/mL | 3.94 h | 7.75 h | 0.91 nM | 27.22 ± 1.33 g | 88.9% | 124.8% | less than 1 µM | essentially the same food intake as the blank group | –
2 | CC[C@@H](C(=O)Nc1ccc(C(N)=O)c(OC)c1)n1cc(OC)c(-c2cc(Cl)ccc2-n2cc(C(F)(F)F)nn2)cc1=O [Compound 5, (S)-4-(2-(4-(5-chloro-2-(4-(trifluoromethyl)-1H-1,2,3-triazol-1-yl)phenyl)-5-methoxy-2-oxopyridin-1(2H)-yl)butanamido)-2-methoxybenzamide] | – | – | – | – | 5.6 nM | – | 84.6% | 125.8% | less than 1 µM | – | –
3 | CC[C@@H](C(=O)Nc1ccc(C(=O)NC)c(F)c1)n1cc(OC)c(-c2cc(Cl)ccc2-n2cc(C(F)(F)F)nn2)cc1=O [Compound 17, (S)-4-(2-(4-(5-chloro-2-(4-(trifluoromethyl)-1H-1,2,3-triazol-1-yl)phenyl)-5-methoxy-2-oxopyridin-1(2H)-yl)butanamido)-2-fluoro-N-methylbenzamide] | – | – | – | – | 1.65 nM | – | 82.6% | 145.3% | less than 1 µM | – | –
4 | [2H]C([2H])([2H])Oc1cn([C@@H](CC)C(=O)Nc2ccc(C(=O)NC)c(F)c2)c(=O)cc1-c1cc(Cl)ccc1-n1cc(C(F)(F)F)nn1 [Compound 25, (S)-4-(2-(4-(5-chloro-2-(4-(trifluoromethyl)-1H-1,2,3-triazol-1-yl)phenyl)-5-(methoxy-d3)-2-oxopyridin-1(2H)-yl)butanamido)-2-fluoro-N-methylbenzamide] | 159 µg·h/mL | 26500 ng/mL | 2.3 h | 1.9 h | 1.87 nM | 27.00 ± 1.42 g | 76.7% | 158.5% | less than 1 µM | essentially the same food intake as the blank group | –
5 | [2H]C([2H])([2H])NC(=O)c1ccc(NC(=O)[C@H](CC)n2cc(OC([2H])([2H])[2H])c(-c3cc(Cl)ccc3-n3cc(C(F)(F)F)nn3)cc2=O)cc1F [Compound 27, (S)-4-(2-(4-(5-chloro-2-(4-(trifluoromethyl)-1H-1,2,3-triazol-1-yl)phenyl)-5-(methoxy-d3)-2-oxopyridin-1(2H)-yl)butanamido)-2-fluoro-N-(methyl-d3)benzamide] | 291 µg·h/mL | 27200 ng/mL | 4.43 h | 4.01 h | 2.98 nM | 27.08 ± 1.19 g | 79.7% | 142.5% | less than 1 µM | essentially the same food intake as the blank group | –

The next lines start with results.

Row | AUC(0-t) [1] | Cmax [1] | Tmax [1] | half-life [1] | IC50 (human FXla) | Food intake (g, mean±SD) [2] | SMILES | APTT prolongation rate (%) (human plasma; 3 µM) | APTT prolongation rate (%) (human plasma; 10 µM) | EC150 (human plasma) | food intake compared with the blank group [2] | APTT prolongation rate (%) (human plasma; 1 µM)
6 | 89.8 µg·h/mL | 6440 ng/mL | 4.1 h | 7.08 h | 0.96 nM | – | CC[C@@H](C(=O)Nc1ccc(C(=O)O)c(OC)c1)n1cc(OC)c(-c2cc(Cl)ccc2-n2cc(C(F)(F)F)nn2)cc1=O [Compound 6, (S)-4-(2-(4-(5-chloro-2-(4-(trifluoromethyl)-1H-1,2,3-triazol-1-yl)phenyl)-5-methoxy-2-oxopyridin-1(2H)-yl)butanamido)-2-methoxybenzoic acid] | 78.0% | 135.1% | less than 1 µM | – | –
7 | – | – | – | – | 6.32 nM | – | CC[C@@H](C(=O)Nc1ccc(C(=O)O)c(Cl)c1)n1cc(OC)c(-c2cc(Cl)ccc2-n2cc(Cl)nn2)cc1=O [Compound 9, (S)-2-chloro-4-(2-(4-(5-chloro-2-(4-chloro-1H-1,2,3-triazol-1-yl)phenyl)-5-methoxy-2-oxopyridin-1(2H)-yl)butanamido)benzoic acid] | 69.5% | 103.8% | – | – | 44.3%
8 | – | – | – | – | 25.5 nM | – | CC[C@@H](C(=O)Nc1ccc(C(N)=O)cc1F)n1cc(OC)c(-c2cc(Cl)ccc2-n2cc(C(F)(F)F)nn2)cc1=O [Compound 13, (S)-4-(2-(4-(5-chloro-2-(4-(trifluoromethyl)-1H-1,2,3-triazol-1-yl)phenyl)-5-methoxy-2-oxopyridin-1(2H)-yl)butanamido)-3-fluorobenzamide] | 80.2% | 175.9% | less than 1 µM | – | –
9 | – | – | – | – | 9.06 nM | – | CC[C@@H](C(=O)Nc1ccc(C(=O)NC)c(OC)c1)n1cc(OC)c(-c2cc(Cl)ccc2-n2cc(C(F)(F)F)nn2)cc1=O [Compound 18, (S)-4-(2-(4-(5-chloro-2-(4-(trifluoromethyl)-1H-1,2,3-triazol-1-yl)phenyl)-5-methoxy-2-oxopyridin-1(2H)-yl)butanamido)-2-methoxy-N-methylbenzamide] | 46.1% | 90.6% | – | – | 33.2%
10 | – | – | – | – | 4.23 nM | – | [2H]C([2H])([2H])Oc1cn([C@@H](CC)C(=O)Nc2ccc(C(N)=O)c(Cl)c2)c(=O)cc1-c1cc(Cl)ccc1-n1cc(C(F)(F)F)nn1 [Compound 22, (S)-2-chloro-4-(2-(4-(5-chloro-2-(4-(trifluoromethyl)-1H-1,2,3-triazol-1-yl)phenyl)-5-(methoxy-d3)-2-oxopyridin-1(2H)-yl)butanamido)benzamide] | 62.0% | 105.9% | – | – | 35.6%
11 | 129 µg·h/mL | 21000 ng/mL | 2.7 h | 3.33 h | 1.15 nM | 26.49 ± 1.21 g | [2H]C([2H])([2H])NC(=O)c1ccc(NC(=O)[C@H](CC)n2cc(OC)c(-c3cc(Cl)ccc3-n3cc(C(F)(F)F)nn3)cc2=O)cc1F [Compound 26, (S)-4-(2-(4-(5-chloro-2-(4-(trifluoromethyl)-1H-1,2,3-triazol-1-yl)phenyl)-5-(methoxy)-2-oxopyridin-1(2H)-yl)butanamido)-2-fluoro-N-(methyl-d3)benzamide] | 78.3% | 159.5% | less than 1 µM | essentially the same food intake as the blank group | –
